Test system: MM.1S cells
Test: Inhibitory effect on the proliferation of MM.1S, MTS cell viability test
Type: cell-based
Details: Homo sapiens, MM1.S, 168 h, multiple myeloma MM.1S cells, 7 days incubation, read-out: Tumor cell inhibitory activity
Experimental: Method of tumor cell proliferation inhibition test: the inventors tested all the example compounds on hematologic tumor cells, multiple myeloma MMTs cell line and acute leukemia cell MV-4-11 cell line of some examples. The activity test method and results are as follows.
1. The Compound's Inhibitory Effect on the Proliferation of MM.1S, MTS Cell Viability Test:
MM.1S cells were cultured and collected with 1640 plus 10% fetal bovine serum. The cell concentration was diluted according to 7 days, and 180 ul cell suspension was added to each well of the 96-well cell plate to 20,000 cells. 20 ul of DMSO with a final concentration of 0.2% was added to the control wells. The compound was 5-fold diluted—from the 10 mM stock solution, and 20 ul was also added to each compound cell well (the final concentration of DMSO was 0.2%). The cells were placed in a 37° C., 5% CO2 incubator to incubate for 7 days. After the reaction solution was prepared according to the MTS kit (Promega, G5430), 20 μL was added to each well and incubated in a 37° C., 5% CO2 incubator for 3-4 h. Absorbance value at 490 nm was read with a microtiter plate, and 690 nm absorbance value was used as the background value. OD490-OD690 was used as the final initial data. The formula for calculating the inhibition rate of the compound is: inhibition rate=(ODDMSO-ODcompound)/(ODDMSO-Oblank)×100%. The compound's proliferation inhibition IC50 was fitted by Graph Pad Prism 5.0. The experiment was repeated three times, and the average and standard deviation was calculated according to the three parallel experiments.
Cell viability test results: **** represents cell viability IC50>20 μM, […] represents cell viability 1 μM<IC50<20 μM, ** represents cell viability 100 nM<IC50<1 μM, * represents cell viability IC50<100 nM.

Compound | IC50 [nM]
O=C1CCC(N2Cc3c(OCCCC(=O)N4CCN(c5cccc(Cl)c5Cl)CC4)cccc3C2=O)C(=O)N1 (stereo not shown) [Example 29, 3-(4-(4-(4-(2,3-dichlorophenyl)piperazine-1-)-4-oxobutoxy)-1-oxoisoindoline-2-)piperidine-2,6-dione] | < 100
O=C1CCC(N2Cc3c(OCCCCC(=O)N4CCN(c5ccccc5)CC4)cccc3C2=O)C(=O)N1 (stereo not shown) [Example 30] | < 100
O=C1CCC(N2Cc3c(OCCCCC(=O)N4CCN(c5cccc(Cl)c5Cl)CC4)cccc3C2=O)C(=O)N1 (stereo not shown) [Example 31, 3-(4-((5-(4-(2,3-dichlorophenyl)piperazine-1-)-5-oxopentyl)oxy)-1-oxopentyl-2-)piperidine-2,6-dione] | < 100
O=C1CCC(N2Cc3c(OCCNC(=O)N4CCN(c5cccc(Cl)c5Cl)CC4)cccc3C2=O)C(=O)N1 (stereo not shown) [Example 32, 4-(2,3-dichlorophenyl)-N-(2-((2-(2,6-dioxopiperidine-3-)-1-oxoisoindoline-4-)oxy)ethyl)piperazine-1-carboxamide] | 100 to 1000
O=C1CCC(N2Cc3c(OCCCCNC(=O)N4CCN(c5cccc(Cl)c5Cl)CC4)cccc3C2=O)C(=O)N1 (stereo not shown) [Example 33, 4-(2,3-dichlorophenyl)-N-(4-((2-(2,6-dioxopiperidine-3-)-1-oxoisoindoline-4-)oxy)butyl)piperazine-1-carboxamide] | < 100
O=C1CCC(N2Cc3c(OCCCNC(=O)N4CCN(c5cccc(Cl)c5Cl)CC4)cccc3C2=O)C(=O)N1 (stereo not shown) [Example 34] | 1000 to 20000
O=C1CCC(N2Cc3c(CCCCN4CCN(c5ccc(C(F)(F)F)cc5)CC4)cccc3C2=O)C(=O)N1 (stereo not shown) [Example 45, 3-(1-oxo-4-(4-(4-(4-trifluoromethylphenyl)piperazine-1-)butyl)isoindoline-2-)piperidine-2,6-dione] | < 100
O=C1CCC(N2C(=O)c3cccc(OCCCCOc4ccnc5ccccc45)c3C2=O)C(=O)N1 (stereo not shown) [Example 47, 2-(2,6-dioxopiperidine-3-)-4-(4-(quinoline-4-oxy)butoxy)isoindoline-1,3-dione] | < 100
N#CC1(c2ccc(Cl)cc2)CCN(CCCCCc2cccc3c2CN(C2CCC(=O)NC2=O)C3=O)CC1 (stereo not shown) [Example 49, 4-(4-chlorophenyl)-1-(5-(2-(2,6-dioxopiperidine-3-)-1-oxoisoindoline-4-)pentyl) piperidine-4-carbonitrile] | < 100
C[C@]1(N2C(=O)c3cccc(OCCCN4CCC(C#N)(c5ccccc5Cl)CC4)c3C2=O)CCC(=O)NC1=O [Example 50, (S)-4-(2-chlorophenyl)-1-(3-((2-(3-methyl-2,6-dioxopiperidine-3-)-1,3-dioxoisoindoline-4-)oxy)propyl)piperidine-4-carbonitrile] | 1000 to 20000
C[C@]1(N2Cc3c(OCCCN4CCC(C#N)(c5cccc(Cl)c5)CC4)cccc3C2=O)CCC(=O)NC1=O [Example 52, (S)-4-(3-chlorophenyl)-1-(3-((2-(3-methyl-2,6-dioxopiperidine-3-)-1-oxoisoindole-4-)oxy)propyl)piperidine-4-carbonitrile] | 1000 to 20000
N#CC1(c2ccccc2)CCN(CCCOc2cccc3c2CN(C2CCC(=O)NC2=O)C3=O)CC1 (stereo not shown) [Example 53, 1-(3-((2-(2,6-dioxopiperidine-3-)-1-oxoisoindoline-4-)oxy)propyl)-4-phenylpiperidine-4-carboxonitrile] | < 100
C[C@]1(N2C(=O)c3cccc(OCCCN4CCC(C#N)(c5cccc(Cl)c5)CC4)c3C2=O)CCC(=O)NC1=O [Example 54, (S)-4-(3-chlorophenyl)-1-(3-((2-(3-methyl-2,6-dioxopiperidine-3-)-1,3-dioxoisoindoline-4-)oxy)propyl)piperidine-4-carbonitrile] | 1000 to 20000
N#CC1(c2ccccc2Cl)CCN(CCCOc2cccc3c2CN(C2CCC(=O)NC2=O)C3=O)CC1 (stereo not shown) [Example 55, 4-(2-chlorophenyl)-1-(3-((2-(2,6-dioxopiperidine-3-)-1-oxoisoindoline-4-)oxy)propyl)piperidine-4-carbonitrile] | < 100
C[C@]1(N2Cc3c(OCCCN4CCC(C#N)(c5ccccc5OC(F)(F)F)CC4)cccc3C2=O)CCC(=O)NC1=O [Example 56, (S)-1-(3-((2-(3-methyl-2,6-dioxopiperidine-3-)-1-oxoisoindoline-4-)oxy)propyl)-4-(2-(trifluoromethoxy)phenyl)piperidine-4-carbonitrile] | 1000 to 20000
N#CC1(c2cccc(Cl)c2)CCN(CCCOc2cccc3c2CN(C2CCC(=O)NC2=O)C3=O)CC1 (stereo not shown) [Example 57, 4-(3-chlorophenyl)-1-(3-((2-(2,6-dioxopiperidine-3-)-1-oxoisoindoline-4-)oxy)propyl)piperidine-4-carbonitrile] | < 100
C[C@]1(N2C(=O)c3cccc(OCCCN4CCC(C#N)(c5ccccc5OC(F)(F)F)CC4)c3C2=O)CCC(=O)NC1=O [Example 58, (S)-1-(3-((2-(3-methyl-2,6-dioxopiperidine-3-)-1,3-dioxoisoindoline-4-)oxy)propyl)-4-(2-(trifluoromethoxy)phenyl)piperidine-4-carbonitrile] | 1000 to 20000
N#CC1(c2ccc(Cl)cc2)CCN(CCCOc2cccc3c2CN(C2CCC(=O)NC2=O)C3=O)CC1 (stereo not shown) [Example 59, 4-(4-chlorophenyl)-1-(3-((2-(2,6-dioxopiperidine-3-)-1-oxoisoindoline-4-)oxy)propyl)piperidine-4-carbonitrile] | < 100
C[C@]1(N2Cc3c(OCCCN4CCC(C#N)(c5cccc(OC(F)(F)F)c5)CC4)cccc3C2=O)CCC(=O)NC1=O [Example 60, (S)-1-(3-((2-(3-methyl-2,6-dioxopiperidine-3-)-1-oxoisoindoline-4-)oxy)propyl)-4-(3-(trifluoromethoxy)phenyl)piperidine-4-carbonitrile] | 1000 to 20000

Now from value to compound:

IC50 [nM] | Compound
< 100 | O=C1CCC(N2Cc3c(CCCCCCN4CCN(c5cccc(Cl)c5Cl)CC4)cccc3C2=O)C(=O)N1 (stereo not shown) [Example 35, 3-(4-(6-(4-(2,3-dichlorophenyl)piperazine-1-)hexyl)-1-oxoisoindoline-2-)piperidine-2,6-dione]
< 100 | N#Cc1ccc(N2CCN(CCCCc3cccc4c3CN(C3CCC(=O)NC3=O)C4=O)CC2)cc1 (stereo not shown) [Example 36, 4-(4-(4-(2-(2,6-dioxopiperidine-3-)-1-oxoisoindoline-4-)butyl)piperazine-1-)benzonitrile]
< 100 | O=C1CCC(N2Cc3c(CCCCN4CCN(c5cccc(Cl)c5)CC4)cccc3C2=O)C(=O)N1 (stereo not shown) [Example 37, 3-(4-(4-(4-(3-chlorophenyl)piperazine-1-)butyl)-1-oxoisoindoline-2-)piperidine-2,6-dione]
< 100 | N#Cc1ccccc1N1CCN(CCCCc2cccc3c2CN(C2CCC(=O)NC2=O)C3=O)CC1 (stereo not shown) [Example 38, 2-(4-(4-(2-(2,6-dioxopiperidine-3-)-1-oxoisoindoline-4-)butyl)piperazine-1-)benzonitrile]
< 100 | O=C1CCC(N2Cc3c(CCCCN4CCN(c5ccc(F)cc5)CC4)cccc3C2=O)C(=O)N1 (stereo not shown) [Example 39, 3-(4-(4-(4-(4-fluorophenyl)piperazine-1-)butyl)-1-oxoisoindoline-2-)piperidine-2,6-dione]
< 100 | Cc1cccc(N2CCN(CCCCc3cccc4c3CN(C3CCC(=O)NC3=O)C4=O)CC2)c1 (stereo not shown) [Example 40, 3-(1-oxo-4-(4-(4-(3-methylphenyl)piperazine-1-)butyl)isoindoline-2-)piperidine-2,6-dione]
< 100 | O=C1CCC(N2Cc3c(CCCCN4CCN(c5ccc(Cl)cc5)CC4)cccc3C2=O)C(=O)N1 (stereo not shown) [Example 41, 3-(4-(4-(4-(4-chlorophenyl)piperazine-1-)butyl)-1-oxoisoindoline-2-)piperidine-2,6-dione]
< 100 | O=C1CCC(N2Cc3c(CCCCN4CCN(c5ccc([N+](=O)[O-])cc5)CC4)cccc3C2=O)C(=O)N1 (stereo not shown) [Example 42, 3-(4-(4-(4-(4-nitrophenyl)piperazine-1-)butyl)-1-oxoisoindoline-2-)piperidine-2,6-dione]
< 100 | O=C1CCC(N2Cc3c(CCCCN4CCN(c5ccc(F)cc5F)CC4)cccc3C2=O)C(=O)N1 (stereo not shown) [Example 43, 3-(4-(4-(4-(2,4-difluorophenyl)piperazine-1-)butyl)-1-oxoisoindoline-2-)piperidine-2,6-dione]
< 100 | O=C1CCC(N2Cc3c(CCCCN4CCN(c5ccc(Cl)c(Cl)c5)CC4)cccc3C2=O)C(=O)N1 (stereo not shown) [Example 44, 3-(4-(4-(4-(3,4-dichlorophenyl)piperazine-1-)butyl)-1-oxoisoindoline-2-)piperidine-2,6-dione]
100 to 1000 | COc1ccc(N2CCN(CCCCc3cccc4c3CN(C3CCC(=O)NC3=O)C4=O)CC2)cc1 (stereo not shown) [Example 46, 3-(4-(4-(4-(4-methoxyphenyl)piperazine-1-)butyl)-1-oxoisoindoline-2-)piperidine-2,6-dione]
< 100 | O=C1CCC(N2Cc3c(CCCCN4CCN(c5c(Cl)cccc5Cl)CC4)cccc3C2=O)C(=O)N1 (stereo not shown) [Example 48, 3-(4-(4-(4-(2,6-dichlorophenyl)piperazine-1-)butyl)-1-oxoisoindoline-2-)piperidine-2,6-dione]
